In paper PMC7881204, “A small-molecular inhibitor against Proteus mirabilis urease to treat catheter-associated urinary tract infections” (Scientific Reports, 2021) one finds IC50 and Ki data, which are given here for 2 compounds.

The target of experiment [1] is T1, urease (Canavalia ensiformis, UniProt P07374).
T1 construct: Type III powder, urease from C. ensiformis (Merck)
Nature of the experiment: colorimetric urease assay (phenol red), dose-response. In kind it is biochemical.

The target of experiment [2] is T1, urease. In words: colorimetric urease assay (phenol red), Dixon plot; IC50 […]. In kind it is biochemical.

T1 sequence (P07374 whole entry, looked up): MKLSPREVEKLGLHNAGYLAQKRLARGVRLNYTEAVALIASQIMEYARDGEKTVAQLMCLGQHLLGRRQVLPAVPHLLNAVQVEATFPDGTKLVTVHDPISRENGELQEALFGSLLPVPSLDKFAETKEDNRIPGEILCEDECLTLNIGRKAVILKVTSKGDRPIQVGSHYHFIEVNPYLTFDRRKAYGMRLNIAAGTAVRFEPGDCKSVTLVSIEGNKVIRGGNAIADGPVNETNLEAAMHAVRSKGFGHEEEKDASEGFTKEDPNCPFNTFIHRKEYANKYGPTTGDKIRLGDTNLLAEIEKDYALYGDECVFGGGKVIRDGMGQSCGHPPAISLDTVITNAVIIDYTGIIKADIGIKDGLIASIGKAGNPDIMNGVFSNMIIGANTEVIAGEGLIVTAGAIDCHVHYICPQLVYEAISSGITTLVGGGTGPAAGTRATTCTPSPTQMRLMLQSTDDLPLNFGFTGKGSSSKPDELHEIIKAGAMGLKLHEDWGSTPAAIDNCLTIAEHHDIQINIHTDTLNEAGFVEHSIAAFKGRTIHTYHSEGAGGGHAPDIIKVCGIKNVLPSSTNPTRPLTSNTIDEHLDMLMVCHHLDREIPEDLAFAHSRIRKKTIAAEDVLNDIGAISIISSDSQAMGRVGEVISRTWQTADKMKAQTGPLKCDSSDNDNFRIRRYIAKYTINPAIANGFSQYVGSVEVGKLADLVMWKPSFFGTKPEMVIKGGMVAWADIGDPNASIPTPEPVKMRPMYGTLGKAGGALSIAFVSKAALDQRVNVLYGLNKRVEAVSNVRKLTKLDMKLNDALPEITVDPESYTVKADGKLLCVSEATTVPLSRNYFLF

By IC50 is commonly meant the concentration needed to halve the response being measured. Low values mean greater potency in that assay, high ones weaker potency in that assay. In the case of `CC(=O)NO` [AHA, acetohydroxamic acid], on urease [1], the IC50 was determined as 4.8 mM. What is called Ki is the equilibrium dissociation constant of an inhibitor or competing ligand from its target. Read a high Ki as weaker binding. Consider `NC(=O)CS` [2-MA, 2-mercaptoacetamide], for which the affinity at urease [2], expressed as Ki, was 2.95 mM. That is a millimolar value.
